Where no end group is shown, it is not given here.
Legend:
Format in all cases: in vivo, rat
Sprague-Dawley rats [1] = test: Formalin pain test; details: for Acute Flinches, % control / Acute Flinches, absolute level: 0-5 minutes post formalin; for Tonic Flinches, % control / Tonic Flinches, absolute level / Tonic Licking, % control / Tonic Licking, absolute level: 20-35 minutes post formalin
Method: The noxious stimulus for this test is the sub-cutaneous injection of a 5% solution of formalin into the dorsal surface of one of the hindlimbs of the animal. Motor activity indices used in this test are 1) the total time spent licking that appendage and 2) the total number of flinching/shaking responses of the affected appendage. Data collection is initiated immediately upon injection of the formalin solution into the limb. The acute phase response is defined by the time interval of 0-5 minutes post formalin injection. The tonic phase response is defined by the interval of 20-35 minutes post formalin injection Data collection is done in a computerized format. Expression of the data is done using either absolute values or as percent control which is defined by the level of response following injection of saline vehicle.
(§1) With minimal restraint, peptide GsAF I was injected intrathecally (i.th.) into young (75-150 gram) male Sprague-Dawley rats (Charles Rivers Laboratories, Wilmington, Mass.) into the spinal subarachnoid space between lumbar spinous processes L4 and L5 using 10 microliter Hamilton syringes equipped with 3/8 inch by 28G needles. Dosing levels were based upon concentrations deduced from ultraviolet absorbance values at 280 nm using an extinction coefficient of 18710. Injection volume was 10 microliters. The injection vehicle was saline or 0.1% bovine serum albumin(BSA)/saline. The rats were pretreated with GsAF I 30 minutes prior to injection with the formalin solution.
as §1, with “GsAF II” for “GsAF I”, “nm as stated previously. Based upon a mass” for “nm using an extinction coefficient”, “of 3980 Da, 583 pmoles corresponds to 2.3 micrograms of GsAF II, and 2.33 nmoles corresponds to 9.3 micrograms of GsAF II.” for “of 18710.”, “or 0.1 %” for “or 0.1%”, “GsAF II 15” for “GsAF I 30”, “with formalin.” for “with the formalin solution.”
In addition to the above analyses, 180 pmoles (666 nanograms) of GsAF I was administered 5 minutes after injection of 5% formalin and the tonic phase responses were recorded as described previously. The highly efficacious activity of GsAF I was retained. Tonic flinch response was inhibited 86% (i.e. 14% of control) and tonic lick duration was reduced 91 % (i.e. 9% of control). This property has only been reported for strong analgesic compounds that interact with μ-opioid receptors.

Sprague-Dawley rats [2] = test: Tail flick latency
Excerpt: This test measures the time interval required for a rat to withdraw its tail, via a spinally mediated reflex mechanism, from a high intensity light source (IITC Inc./Life Sciences Instruments, Woodland Hills, Calif. 91367) focally applied to the dorsal surface of the appendage. The intensity of the light beam has been experimentally defined such that naive animals will withdraw their tails within 2 to 4 seconds. A maximum cut off time for the light source has been set at ten seconds to reduce the amount of secondary tissue damage.
Data is expressed either as absolute time or a percentage of the maximal possible effect (MPE) which is described by the following equation where 10 seconds is the maximum: [formula] (Latency refers to the amount of time before the animal removed its appendage from the light source.)
as §1, with “Mass. 01887). I.th. injections were made” for “Mass.)”, “exposure to” for “injection with”, “light source.” for “formalin solution.”
With minimal restraint, peptide GsAF II was injected intrathecally (i.th.) into young (75-150 gram) male Sprague-Dawley rats (Charles Rivers Laboratories, Wilmington, Mass.)) into the spinal subarachnoid space between lumbar spinous processes L4 and L5 using 10 microliter Hamilton syringes equipped with 3/8 inch by 28G needles. Dosing levels were based upon concentrations deduced from ultraviolet absorbance values at 280 nm using the deduced molar extinction coefficient of 24310. Injection volume was 10 microliters. The injection vehicle was saline or 0.1% bovine serum albumin(BSA)/saline. The rats were pretreated with GsAF II 15 minutes prior to exposure to the light source.

Sprague-Dawley rats [3] = test: Hot plate threshold
Method: This test measures the temperature at which point a rat voluntarily removes one of its hindlimbs from the heated surface and either shakes or lick the affected appendage. The temperature of the heated surface is pre-set to the experimentally deduced value of 38° C. and a maximum cutoff value of either 53° C. or 54° C. has been used. Data is expressed either as absolute temperature in degrees C. or as percentage maximal possible effect as described by the formula [formula] (54 is substituted for 53 in the above formula if it is the maximal value.)
as §1, with “0.1 %bovine” for “0.1% bovine”, “exposure to heat.” for “injection with the formalin solution.”
as §1, with “GsAF II” for “GsAF I”, “GsAF II 15” for “GsAF I 30”, “to exposure to heat.” for “to injection with the formalin solution.”

[4] = 583 pmoles i.th., 15 minutes pretreatment
[5] = 2.33 nmoles i.th., 15 minutes pretreatment
[6] = 583 picomoles (2.33 micrograms) i.th., 15 minutes pretreatment
[7] = 1.8 pmoles i.th., 30 minutes pretreatment
[8] = 18 pmoles i.th., 30 minutes pretreatment
[9] = 180 pmoles (666 nanograms) administered 5 minutes after injection of 5% formalin
[10] = 180 pmoles i.th., 30 minutes pretreatment

Substance: YCQKWMWTCDEERKCCEGLVCRLWCKKKIEW (cysteine pairing not given here) [GsAF II]
- Acute Flinches, % control (Sprague-Dawley rats [1]; [4]): 41%
- Acute Flinches, absolute level (Sprague-Dawley rats [1]; [4]): 6.8
- Tonic Flinches, % control (Sprague-Dawley rats [1]; [4]): 9.5%
- Tonic Flinches, absolute level (Sprague-Dawley rats [1]; [4]): 8.2
- Tonic Licking, % control (Sprague-Dawley rats [1]; [4]): 8.2%
- Tonic Licking, absolute level (Sprague-Dawley rats [1]; [4]): 7.8 s
- Acute Flinches, % control (Sprague-Dawley rats [1]; [5]): 19%
- Acute Flinches, absolute level (Sprague-Dawley rats [1]; [5]): 3.25
- Tonic Flinches, % control (Sprague-Dawley rats [1]; [5]): 1.4%
- Tonic Flinches, absolute level (Sprague-Dawley rats [1]; [5]): 1.2
- Tonic Licking, % control (Sprague-Dawley rats [1]; [5]): 0%
- Tonic Licking, absolute level (Sprague-Dawley rats [1]; [5]): 0 s
- inhibition of the tail flick response (latency greater than ten seconds) (Sprague-Dawley rats [2]; 2.33 nanomoles (9.27 micrograms) i.th., 15 minutes pretreatment, all animals (n=8)): Complete inhibition
- confounding side effects (Sprague-Dawley rats [2]; 2.33 nanomoles and 583 picomoles i.th.): no confounding side effects were detected
- animals with 100% MPE, tail flick (Sprague-Dawley rats [2]; [6]): five of six
- average MPE, tail flick latency (Sprague-Dawley rats [2]; [6]): 92%
- MPE, hot plate threshold (Sprague-Dawley rats [3]; 2.33 nanomole (9.27 micrograms) i.th., 15 minutes pretreatment, all animals): 100 % MPE
- motor coordination problems (Sprague-Dawley rats [3]; 2.33 nanomole and 583 picomoles i.th.): No motor coordination problems were witnessed
- average MPE, hot plate threshold (Sprague-Dawley rats [3]; 583 picomoles (2.32 micrograms) i.th., 15 minutes pretreatment): 59%

Substance: Tyr-Cys-Gln-Lys-Trp-Leu-Trp-Thr-Cys-Asp-Ser-Glu-Arg-Lys-Cys-Cys-Glu-Asp-Met-Val-Cys-Arg-Leu-Trp-Cys-Lys-Lys-Arg-Leu-NH2 (YCQKWLWTCDSERKCCEDMVCRLWCKKRL-NH2; cysteine pairing not given here) [GsAF I]
- Acute Flinches, % control (Sprague-Dawley rats [1]; [7]): 28%
- Acute Flinches, absolute level (Sprague-Dawley rats [1]; [7]): 12
- Tonic Flinches, % control (Sprague-Dawley rats [1]; [7]): 32%
- Tonic Flinches, absolute level (Sprague-Dawley rats [1]; [7]): 44.3
- Tonic Licking, % control (Sprague-Dawley rats [1]; [7]): 46%
- Tonic Licking, absolute level (Sprague-Dawley rats [1]; [7]): 84.3 s
- Acute Flinches, % control (Sprague-Dawley rats [1]; [8]): 20%
- Acute Flinches, absolute level (Sprague-Dawley rats [1]; [8]): 8.5
- Tonic Flinches, % control (Sprague-Dawley rats [1]; [8]): 21%
- Tonic Flinches, absolute level (Sprague-Dawley rats [1]; [8]): 29.5
- Tonic Licking, % control (Sprague-Dawley rats [1]; [8]): 8.4%
- Tonic Licking, absolute level (Sprague-Dawley rats [1]; [8]): 15.3 s
- Tonic flinch response, % of control (Sprague-Dawley rats [1]; [9]): 14 % of control
- Tonic flinch response, inhibition (Sprague-Dawley rats [1]; [9]): 86%
- tonic lick duration, % of control (Sprague-Dawley rats [1]; [9]): 9 % of control
- tonic lick duration, reduction (Sprague-Dawley rats [1]; [9]): 91%
- Acute Flinches, % control (Sprague-Dawley rats [1]; [10]): 8.9%
- Acute Flinches, absolute level (Sprague-Dawley rats [1]; [10]): 3.8
- Tonic Flinches, % control (Sprague-Dawley rats [1]; [10]): 3.0%
- Tonic Flinches, absolute level (Sprague-Dawley rats [1]; [10]): 4.3
- Tonic Licking, % control (Sprague-Dawley rats [1]; [10]): 0%
- Tonic Licking, absolute level (Sprague-Dawley rats [1]; [10]): 0 s
- activity in tail flick latency (Sprague-Dawley rats [2]; 1.8 picomoles (6.6 nanograms) i.th., 30 minutes pretreatment): inactive
- MPE, tail flick latency (Sprague-Dawley rats [2]; 18 picomoles (66 nanograms) i.th., 30 minutes pretreatment): 29 % MPE
- MPE, tail flick latency (Sprague-Dawley rats [2]; 180 picomoles (666 nanograms) i.th., 30 minutes pretreatment): 95 % MPE
- inhibition of the tail flick response (latency value greater than 10 seconds) (Sprague-Dawley rats [2]; 180 picomoles (666 nanograms) i.th., in most rats): Complete inhibition
- confounding side effects (motor disturbances, limb impairment/paralysis, righting reflex, sedation) (Sprague-Dawley rats [2]; 180 picomoles i.th.): either minimal or not present
- pretreatment time with maximal activity (Sprague-Dawley rats [2]; i.th., tail flick): 30 min
- MPE, hot plate threshold (Sprague-Dawley rats [3]; 18 picomoles (6.6 nanograms) i.th., one hour pretreatment): 24 % MPE
- activity in hot plate threshold (Sprague-Dawley rats [3]; 18 picomoles i.th., 30 minute pretreatment): loss of significant activity
- adverse motor effects (Sprague-Dawley rats [3]; 180 and 18 picomoles i.th.): No adverse motor effects were evident
- MPE, hot plate threshold (Sprague-Dawley rats [3]; 180 picomole (66 nanograms) i.th., one hour pretreatment): 91 % MPE
- MPE, hot plate threshold (Sprague-Dawley rats [3]; 180 picomoles (666 nanograms) i.th., 30 minute pretreatment): 70 % MPE
